According to PubChem BioAssay (NCI):
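Following 48 hours of exposure in 96-well plates, responses at five concentrations were used to interpolate endpoints linearly. TGI: total growth inhibition.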

Legend:
Assay in all cases: NCI tumour cell line growth inhibition, 48 h
HT29 colon = system: HT29 colon
UO-31 renal = system: UO-31 renal
HOP-62 NSCLC = system: HOP-62 NSCLC
A549 NSCLC = system: A549 NSCLC
K-562 leukemia = system: K-562 leukemia
ACHN renal = system: ACHN renal
OVCAR-5 ovarian = system: OVCAR-5 ovarian
KM20L2 colon = system: KM20L2 colon
SW-620 colon = system: SW-620 colon
OVCAR-3 ovarian = system: OVCAR-3 ovarian
NCI-H522 lung = system: NCI-H522 lung
SNB-19 CNS = system: SNB-19 CNS
LOX IMVI melanoma = system: LOX IMVI melanoma
CAKI-1 renal = system: CAKI-1 renal
HL-60(TB) leukemia = system: HL-60(TB) leukemia
SK-OV-3 ovarian = system: SK-OV-3 ovarian
SF-268 CNS = system: SF-268 CNS
NCI-H460 lung = system: NCI-H460 lung
SR leukemia = system: SR leukemia
NCI-H23 lung = system: NCI-H23 lung
M19-MEL melanoma = system: M19-MEL melanoma
HOP-18 NSCLC = system: HOP-18 NSCLC
RPMI-8226 leukemia = system: RPMI-8226 leukemia
OVCAR-8 ovarian = system: OVCAR-8 ovarian
SN12C renal = system: SN12C renal
HOP-92 NSCLC = system: HOP-92 NSCLC
SNB-75 CNS = system: SNB-75 CNS
SF-539 CNS = system: SF-539 CNS
SK-MEL-5 melanoma = system: SK-MEL-5 melanoma
KM12 colon = system: KM12 colon
UACC-62 melanoma = system: UACC-62 melanoma
SK-MEL-28 melanoma = system: SK-MEL-28 melanoma
U251 CNS = system: U251 CNS
M14 melanoma = system: M14 melanoma
SF-295 CNS = system: SF-295 CNS
A498 renal = system: A498 renal
MOLT-4 leukemia = system: MOLT-4 leukemia
IGROV1 ovarian = system: IGROV1 ovarian
DMS 273 small cell lung = system: DMS 273 small cell lung
HCT-116 colon = system: HCT-116 colon
SNB-78 CNS = system: SNB-78 CNS
OVCAR-4 ovarian = system: OVCAR-4 ovarian
HCC-2998 colon = system: HCC-2998 colon
RXF-631 renal = system: RXF-631 renal
CCRF-CEM leukemia = system: CCRF-CEM leukemia
XF 498 CNS = system: XF 498 CNS
LXFL 529 NSCLC = system: LXFL 529 NSCLC
UACC-257 melanoma = system: UACC-257 melanoma
HCT-15 colon = system: HCT-15 colon
TK-10 renal = system: TK-10 renal
786-0 renal = system: 786-0 renal
EKVX NSCLC = system: EKVX NSCLC
DMS 114 small cell lung = system: DMS 114 small cell lung
MALME-3M melanoma = system: MALME-3M melanoma
COLO 205 colon = system: COLO 205 colon
NCI-H226 lung = system: NCI-H226 lung
DLD-1 colon = system: DLD-1 colon
SK-MEL-2 melanoma = system: SK-MEL-2 melanoma
RXF 393 renal = system: RXF 393 renal

With COC(=O)C12CC3CC(CC(C(=O)O)(C3)C1)C2 the TGI (HT29 colon) was > 100 µM, the TGI (UO-31 renal) was > 100 µM and the TGI (HOP-62 NSCLC) was > 100 µM. For the same molecule, the TGI (A549 NSCLC) was > 100 µM, the TGI (K-562 leukemia) was > 100 µM and the TGI (ACHN renal) was > 100 µM. The TGI (OVCAR-5 ovarian) was > 100 µM, the TGI (KM20L2 colon) was > 100 µM and the TGI (SW-620 colon) was > 100 µM. The TGI (OVCAR-3 ovarian) was > 100 µM, the TGI (NCI-H522 lung) was > 100 µM and the TGI (SNB-19 CNS) was > 100 µM. For the same molecule, the TGI (LOX IMVI melanoma) was > 100 µM, the TGI (CAKI-1 renal) was > 100 µM and the TGI (HL-60(TB) leukemia) was > 100 µM. For the same molecule, the TGI (SK-OV-3 ovarian) was > 100 µM, the TGI (SF-268 CNS) was > 100 µM and the TGI (NCI-H460 lung) was > 100 µM. For the same molecule, the TGI (SR leukemia) was > 100 µM, the TGI (NCI-H23 lung) was > 100 µM and the TGI (M19-MEL melanoma) was > 100 µM. The TGI (HOP-18 NSCLC) was > 100 µM, the TGI (RPMI-8226 leukemia) was > 100 µM and the TGI (OVCAR-8 ovarian) was > 100 µM. For the same molecule, the TGI (SN12C renal) was > 100 µM, the TGI (HOP-92 NSCLC) was > 100 µM and the TGI (SNB-75 CNS) was > 100 µM. For the same molecule, the TGI (SF-539 CNS) was > 100 µM, the TGI (SK-MEL-5 melanoma) was > 100 µM and the TGI (KM12 colon) was > 100 µM. The TGI (UACC-62 melanoma) was > 100 µM, the TGI (SK-MEL-28 melanoma) was > 100 µM and the TGI (U251 CNS) was > 100 µM. The TGI (M14 melanoma) was > 100 µM, the TGI (SF-295 CNS) was > 100 µM and the TGI (A498 renal) was > 100 µM. The TGI (MOLT-4 leukemia) was > 100 µM, the TGI (IGROV1 ovarian) was > 100 µM and the TGI (DMS 273 small cell lung) was > 100 µM. For the same molecule, the TGI (HCT-116 colon) was > 100 µM, the TGI (SNB-78 CNS) was > 100 µM and the TGI (OVCAR-4 ovarian) was > 100 µM. For the same molecule, the TGI (HCC-2998 colon) was > 100 µM, the TGI (RXF-631 renal) was > 100 µM and the TGI (CCRF-CEM leukemia) was > 100 µM. For the same molecule, the TGI (XF 498 CNS) was > 100 µM, the TGI (LXFL 529 NSCLC) was > 100 µM and the TGI (UACC-257 melanoma) was > 100 µM. For the same molecule, the TGI (HCT-15 colon) was > 100 µM, the TGI (TK-10 renal) was > 100 µM and the TGI (786-0 renal) was > 100 µM. For the same molecule, the TGI (EKVX NSCLC) was > 100 µM.
In the case of O=C(c1cccc2ccccc12)N1CCC(C2CCN(C(=O)c3cccc4ccccc34)CC2)CC1, the TGI (HT29 colon) is reported as > 100 µM, the TGI (DMS 114 small cell lung) is reported as > 100 µM and the TGI (UO-31 renal) is reported as > 100 µM. The TGI (HOP-62 NSCLC) was > 100 µM, the TGI (A549 NSCLC) was > 100 µM and the TGI (K-562 leukemia) was > 100 µM. The TGI (ACHN renal) was > 100 µM, the TGI (OVCAR-5 ovarian) was > 100 µM and the TGI (KM20L2 colon) was > 100 µM. For the same molecule, the TGI (SW-620 colon) was > 100 µM, the TGI (OVCAR-3 ovarian) was > 100 µM and the TGI (NCI-H522 lung) was > 100 µM. The TGI (LOX IMVI melanoma) was > 100 µM, the TGI (CAKI-1 renal) was > 100 µM and the TGI (HL-60(TB) leukemia) was > 100 µM. The TGI (SK-OV-3 ovarian) was > 100 µM, the TGI (SF-268 CNS) was > 100 µM and the TGI (NCI-H460 lung) was > 100 µM. The TGI (MALME-3M melanoma) was > 100 µM, the TGI (SR leukemia) was > 100 µM and the TGI (NCI-H23 lung) was > 100 µM. The TGI (M19-MEL melanoma) was > 100 µM, the TGI (HOP-18 NSCLC) was > 100 µM and the TGI (RPMI-8226 leukemia) was > 100 µM. The TGI (OVCAR-8 ovarian) was > 100 µM, the TGI (SN12C renal) was > 100 µM and the TGI (HOP-92 NSCLC) was > 100 µM. For the same molecule, the TGI (SNB-75 CNS) was 65.7 µM, the TGI (COLO 205 colon) was > 100 µM and the TGI (SF-539 CNS) was > 100 µM. For the same molecule, the TGI (SK-MEL-5 melanoma) was > 100 µM, the TGI (KM12 colon) was > 100 µM and the TGI (UACC-62 melanoma) was > 100 µM. For the same molecule, the TGI (SK-MEL-28 melanoma) was > 100 µM, the TGI (U251 CNS) was > 100 µM and the TGI (M14 melanoma) was > 100 µM. The TGI (SF-295 CNS) was > 100 µM, the TGI (A498 renal) was > 100 µM and the TGI (NCI-H226 lung) was > 100 µM. The TGI (DLD-1 colon) was > 100 µM, the TGI (MOLT-4 leukemia) was > 100 µM and the TGI (IGROV1 ovarian) was > 100 µM. The TGI (DMS 273 small cell lung) was > 100 µM, the TGI (HCT-116 colon) was > 100 µM and the TGI (SNB-78 CNS) was > 100 µM. For the same molecule, the TGI (SK-MEL-2 melanoma) was > 100 µM, the TGI (RXF-631 renal) was > 100 µM and the TGI (CCRF-CEM leukemia) was > 100 µM. For the same molecule, the TGI (XF 498 CNS) was > 100 µM, the TGI (LXFL 529 NSCLC) was > 100 µM and the TGI (RXF 393 renal) was > 100 µM. For the same molecule, the TGI (UACC-257 melanoma) was > 100 µM, the TGI (HCT-15 colon) was > 100 µM and the TGI (TK-10 renal) was > 100 µM. The TGI (786-0 renal) was > 100 µM and the TGI (EKVX NSCLC) was > 100 µM.
